Source: US20070059720A9 (priority 2004, published 2007)

What was measured:
EBP50 = assay: Immunoblot of EBP50 in T47D vector and MTA2 clones; type: cell-based, human
ERα [1] = assay: Immunoblot of ERα in T47D vector and MTA2 clones; type: cell-based, human
MCF-7-MKP3 cells = assay: Anchorage-independent soft agar colony formation, MKP3-overexpressing MCF-7 transfectants; type: cell-based, human
Protocol: MCF-7 cells were originally obtained from Dr. Benita Katzenellebogen, but have been maintained in the inventors' laboratory for over 10 years (Fuqua et al., 2000). MCF-7 cells were maintained in Minimal Essential Medium (MEM, InVitrogen) supplemented with 5% fetal bovine serum (Summit Biotechnology, Fort Collins, Colo.), 200 U/ml penicillin, and 200 μg/ml streptomycin. Cells were incubated at 37° C. in 5% CO2. To generate MCF-7 cells stably overexpressing MKP3, 5 μg of the plasmid pcDNA3-MKP3-V5 (Furukawa et al., 2003) or empty vector (pcDNA3-His-V5, InVitrogen), were transfected into the cells using Fugene 6 reagent Roche Clinical Laboratories, Indianapolis, Ind.) in 100 mm tissue culture dishes following the manufacturer's protocol. Stable clones overexpressing MKP3 were selected as described (Fuqua et al., 2000), and positive clones were identified using immunoblot analysis with an anti-V5 antibody (1:5000 dilution)
Cells were starved for 2 days in PRF MEM (InVitrogen) supplemented with 5% fetal bovine serum (FBS, Summit Biotechnology, Fort Collins, Colo.), 6 ng/ml insulin, 200 units/ml penicillin, and 200 μg/ml streptomycin. Soft agar assays were performed in sixwell plates. Into each well, 1.5 ml of prewarmed (50° C.) 0.7% SeaPlaque agarose (FMC, Rockland, Me.) was added and dissolved in PRF MEM supplemented with 5% charcoal stripped FBS (Summit, Fort Collins, Colo.) to serve as the bottom layer, and allowed to solidify at 4° C. until to use. 0.5×10^4 cells as a single cell suspension were suspended in prewarmed (37° C.) of the same media, 4 ml of 0.5% SeaPlaque agarose was then added, and this suspension then plated as the top layer by adding it dropwise to the solidified bottom layer plates. Plates were cooled for 2 hours, and then transferred to a 37° C. humidified incubator. Two days after plating, media containing control vehicle, 1 nM estradiol, 100 nM 4-OH-Tam, 100 nM OHT plus 10 nM ICI, or 100 nM OHT plus 20 nM […] was added to the top cell layer, and the appropriate media was replaced every two days. After 14 days, the colonies were fixed, and the colony number of colonies >50 cells from quadruplicate assays were then counted. The data shown is the mean colony number of four plates, and is representative of two independent experiments.
In pancreatic cells, ectopic expression of MKP3 is reported to result in a suppression of cell growth (Fuqua et al., 2003). Thus, the growth characteristics of the MCF-7 stable MKP3 transfectants under different hormonal conditions were investigated using anchorageindependent soft agar assay (FIG. 4B).

ERα [2] = assay: Transient transactivation assay with ERE-luciferase reporter; type: cell-based; details: U20S cells with exogenous ER or MCF-7 cells with endogenous ER; EBP50 expression
Source text: Transient transactivation assays with an ERE-luciferase reporter were utilized in U20S cells expressing exogenous ER (Panel A), or MCF-7 cells expressing endogenous ER (Panel B). ER activity was enhanced with EBP50 expression in the presence of estrogen.

PR-B = assay: PR ubiquitin assay; type: cell-based, human; details: 2 hrs in the presence of a proteasomal inhibitor
Protocol: Cells were staved in PRF MEM for 24 hours, and then 2×10^6 cells were seeded into 100 mm tissue culture plates, and incubated for another 24 hours. Cells were transiently transfected with Fugene 6 reagent (Roche, Indianapolis, Ind.) following the manufacturer's protocol. Each plate was transfected with 1 μg pcDNA 3.1-PR-B (subcloned by BamHI digestion from pSG5-human PR-B clone (Richer et al., 1998) obtained from Dr. Kathryn Horwitz, University of Colorado Health Sciences Center, 1 μg MKP3-V5, and 3 μg pcDNA-HAUbiquitin (kindly provided by Dr. Xinhua Feng, Baylor College of Medicine). Twenty-four hours later, cells were switched to serum free, PRF MEM, incubated for another 24 hours. In some experiments were pretreated with the 50 μM MG-132 (Calbiochem, LaJolla, Calif.) for 2 hours, and then treated with vehicle (ethanol), estradiol (E2, 100 nM), or 4-OH-Tam (100 nM) for an additional 2 hours. Cells were then harvested in 1 ml cell lysis buffer supplemented with 50 μM MG-132. Cell lysates from each treatment were precleared with the addition of 50 μl 50% protein A slurry (Amersham), and immunoprecipitated with the addition of anti-PR antibodies C-19 and H190 (2 μg each), and 20 μl 50% protein A slurry. […]

ER-positive tumors = details: cited from earlier work
[3] = adjuvant therapy, patients with ER-positive tumors

Row | SMILES | EBP50 levels (EBP50) | ERα protein levels (ERα [1]) | estrogen-induced colony formation of MCF-7-MKP3 clones (MCF-7-MKP3 cells; 1 nM estradiol, versus vector control cells) | effect on ER activity (ERE-luciferase) (ERα [2]) | level of polyubiquitin-conjugated PR-B (PR-B) | increase in number of soft agar colonies formed in the presence of Tam, MKP3-overexpressing transfectants compared to vector control cells (MCF-7-MKP3 cells; 100 nM 4-OH-Tam, two MKP3 clones, P<0.05) [fold] | 10-year recurrence risk (ER-positive tumors; [3]) | reduction of the risk of death from metastatic disease (ER-positive tumors; [3]) [%] | share of patients with ER-positive disease who respond (ER-positive tumors; human, in vivo) [%]
1 | C[C@]12CC[C@@H]3c4ccc(O)cc4CC[C@H]3[C@@H]1CC[C@@H]2O [E2, 17β-Estradiol] | increased | decreased | equivalent to those obtained with vector control cells | – | – | – | – | – | –
2 | CC/C(=C(\c1ccccc1)c1ccc(OCCN(C)C)cc1)c1ccccc1 [Tam, tamoxifen] | – | – | – | antagonist and reversed estrogen's effects | increased | ~20 | halves | 26 | 60
